Tests used:
SUDV-Gulu = assay: microbe, parasite or virus in culture; format: cell-based, Sudan virus (SUDV)
[1] = 1 h, pH 7.4
in vitro = conditions: African green monkey
[2] = 1 h, pH 7.4; remark: listed apart in the source
EBOV-Zaire = assay: microbe, parasite or virus in culture; format: cell-based, Ebola virus (EBOV)
[3] = system: pseudotyped VSV expressing SUDV glycoprotein; assay: microbe, parasite or virus in culture; format: cell-based, Sudan virus (SUDV); conditions: Vesicular stomatitis virus, Vero, 24 h, read-out: EC50 (uM) Pseudotype Assays SUDV
[4] = 1 h, pH 7.4; remark: listed apart in the source
[5] = system: pseudotyped VSV expressing EBOV glycoprotein; assay: microbe, parasite or virus in culture; format: cell-based, Ebola virus (EBOV); conditions: Zaire ebolavirus, Vero, 24 h, read-out: EC50 (uM) Pseudotype Assays EBOV
[6] = 1 h, pH 7.4; remark: listed apart in the source
[7] = system: pseudotyped VSV expressing MARV glycoprotein; assay: microbe, parasite or virus in culture; format: cell-based, Marburg virus (MARV); conditions: Vesicular stomatitis virus, Vero, 24 h, read-out: EC50 (uM) Pseudotype Assays MARV
[8] = system: pseudotyped VSV expressing BDBV glycoprotein; assay: microbe, parasite or virus in culture; format: cell-based, Bundibugyo virus (BDBV); conditions: Vesicular stomatitis virus, Vero, 24 h, read-out: EC50 (uM) Pseudotype Assays BDBV
[9] = 1 h, pH 7.4; remark: listed apart in the source
[10] = 1 h, pH 7.4; remark: listed apart in the source
EBOV (strain kikwit) = assay: microbe, parasite or virus in culture; format: cell-based, Ebola virus (EBOV)
SUDV (strain Gulu) = assay: microbe, parasite or virus in culture; format: cell-based, Sudan virus (SUDV)
WT EBOV-Mayinga = assay: microbe, parasite or virus in culture; format: cell-based, Ebola virus (EBOV)

For `CCC=C1C2CC3(C(=S)N[C@H]4CC[C@H](N)CC4)CC1CC(c1ccccc1)(C2)C3` (relative stereo) [Example D2, trans-N-(4-aminocyclohexyl)-3-phenyl-6-propylideneadamantane-1-carbothioamide], the “SUDV-Gulu SI50 (CC50/EC50)” value (SUDV-Gulu) was 78, the EC50 (SUDV-Gulu; Sudan ebolavirus, Vero, read-out: SUDV-Gulu EC50 (uM)) was 0.11 µM and the “Percent parent compound remaining at 60 minutes in liver microsomes, Monkey” value (“Percent parent compound remaining … Monkey” below) [1] was 100%. For the same compound, the CC50 (in vitro) was 1780 nM, the “Percent parent compound remaining at 60 minutes in liver microsomes, Guinea Pig” value (“Percent parent compound remaining … Guinea Pig” below) [2] was 100% and the “EBOV-Zaire SI50 (CC50/EC50)” value (EBOV-Zaire) was 3.3. For the same compound, the EC50 (EBOV-Zaire; Zaire ebolavirus, Vero, read-out: EBOV-Zaire EC50 (uM)) was 2.6 µM, the EC50 [3] was 0.072 µM and the “Percent parent compound remaining at 60 minutes in liver microsomes, Human” value (“Percent parent compound remaining … Human” below) [4] was 100%. The EC50 [5] was 0.051 µM.

For `CC1C2CC3(C(=O)N[C@H]4CC[C@H](N)CC4)CC1CC(c1ccccc1)(C2)C3` (stereo partly drawn) [Example F1, trans-N-(4-aminocyclohexyl)-6-methyl-3-phenyladamantane-1-carboxamide], the “Percent parent compound remaining … Monkey” value [1] was 92%, the CC50 (in vitro) was 13300 nM and the “Percent parent compound remaining … Guinea Pig” value [2] was 79%. The “Percent parent compound remaining at 60 minutes in liver microsomes, Dog” value [6] was 82%, the EC50 [7] was over 3 µM and the EC50 [8] was 0.065 µM. For the same compound, the “Percent parent compound remaining at 60 minutes in liver microsomes, Rat” value [9] was 99%, the EC50 [3] was 0.21 µM and the “Percent parent compound remaining … Human” value [4] was 91%. For the same compound, the “Percent parent compound remaining at 60 minutes in liver microsomes, Mouse” value [10] was 83% and the EC50 [5] was 0.027 µM.

For `CCC1C2CC3(C(=O)N[C@H]4CC[C@H](N)CC4)CC1CC(c1ccccc1)(C2)C3` (stereo partly shown) [Example F2], the “EBOV-Kikwit SI50 (CC50/EC50)” value (EBOV (strain kikwit)) was 90.33, the EC50 (EBOV (strain kikwit); Zaire ebolavirus, HeLa, read-out: EBOV-Kikwit EC50 (uM)) was 0.11 µM and the “Percent parent compound remaining … Monkey” value [1] was 100%. For the same compound, the CC50 (in vitro) was 12600 nM, the “Percent parent compound remaining … Guinea Pig” value [2] was 68% and the “SUDV-Gulu SI50 (CC50/EC50)” value (SUDV (strain Gulu)) was 291.26. For the same compound, the EC50 (SUDV (strain Gulu); Sudan ebolavirus, HeLa, read-out: SUDV-Gulu EC50 (uM)) was 0.039 µM, the “Percent parent compound remaining at 60 minutes in liver microsomes, Dog” value [6] was 80% and the EC50 [7] was 3.1 µM. The EC50 [8] was 0.03 µM, the “Percent parent compound remaining at 60 minutes in liver microsomes, Rat” value [9] was 86.5% and the EC50 [3] was 0.27 µM. For the same compound, the “Percent parent compound remaining … Human” value [4] was 85%, the “Percent parent compound remaining at 60 minutes in liver microsomes, Mouse” value [10] was 48% and the “WT EBOV-Mayinga SI50 (CC50/EC50)” value (WT EBOV-Mayinga) was 706.84. The “WT EBOV-Mayinga SI90 (CC50/EC90)” value (WT EBOV-Mayinga) was 209.99, the EC50 (WT EBOV-Mayinga; Zaire ebolavirus, read-out: WT EBOV-Mayinga EC50 (uM)) was 0.014 µM and the EC90 (WT EBOV-Mayinga; Zaire ebolavirus, read-out: WT EBOV-Mayinga EC90 (uM)) was 0.048 µM. It also gave an EC50 [5] of 0.011 µM.

— US20240238265A1 (priority 2020, published 2024)
